Results published in patent US4393225A, “AI-77 Compounds and pharmaceutically acceptable salts thereof” (Asahi Kasei Kogyo Kabushiki Kaisha, priority 1979, dated 1983).

Test system: ulcer
Assay: Anti-ulcer test (restraint and water immersion ulcer in rats, i.p.)
Type: in vivo, Male Wistar rats
Conditions: Rattus norvegicus, ip; 50 mg/kg i.p.; read-out: % Inhibition of Ulcer
In short: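 Compound given intraperitoneally in saline to 24 h-fasted male Wistar rats about 150 g, followed after one hour by 6 h restraint with water immersion at 21 °C. Gastric lesions graded 0, 0.5, 1, 2 or 3 on microscopic inspection and converted to percent ulcer inhibition.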

SMILES	inhibition in vivo at 50 mg/kg [%]
CCOc1cccc2c1C(=O)OC(C(CC(C)C)NC(=O)C(O)C1OC(=O)CC1NC(=O)CCCCCCCCCO)C2 (stereo not shown) [IIIa-5-75]	33
CCOc1cccc2c1C(=O)OC(C(CC(C)C)NC(=O)C(O)C1OC(=O)CC1NC(=O)CC1CC1)C2 (stereo not shown) [IIIa-5-76]	33
CCOc1cccc2c1C(=O)OC(C(CC(C)C)NC(=O)C(O)C1OC(=O)CC1NC(=O)C(C)=C(C)Br)C2 (stereo not shown) [IIIa-5-77]	44
CCOc1cccc2c1C(=O)OC(C(CC(C)C)NC(=O)C(O)C1OC(=O)CC1NC(=O)C=C(C)C)C2 (stereo not shown) [IIIa-5-78]	44
CCCCCc1ccc(COc2cccc3c2C(=O)OC(C(CC(C)C)NC(=O)C(O)C2OC(=O)CC2NC(=O)CCC)C3)cc1 (stereo not shown) [IIIa-5-119]	33
CCCC=Cc1ccc(COc2cccc3c2C(=O)OC(C(CC(C)C)NC(=O)C(O)C2OC(=O)CC2NC(=O)CCC)C3)cc1 (stereo not shown) [IIIa-5-120]	33
CCCC(=O)NC1CC(=O)OC1C(O)C(=O)NC(CC(C)C)C1Cc2cccc(OC(C)C)c2C(=O)O1 (stereo not shown) [IIIa-5-121]	33
CC(C)CC(NC(=O)C(O)C1OC(=O)CC1NC(=O)C(Cl)(Cl)Cl)C1Cc2cccc(OCCCC3CCCC3)c2C(=O)O1 (stereo not shown) [IIIa-5-124]	33
CCC(=O)COc1cccc2c1C(=O)OC(C(CC(C)C)NC(=O)C(O)C1OC(=O)CC1NC(=O)C(Cl)(Cl)Cl)C2 (stereo not shown) [IIIa-5-125]	33
CCOc1cccc2c1C(=O)OC(C(CC(C)C)NC(=O)C(OC(=O)C(Cl)(Cl)Cl)C1OC(=O)CC1NC(=O)C(Cl)(Cl)Cl)C2 (stereo not shown) [IIIa-6-1]	33
CC(=O)NC1CC(=O)OC1C(OC(C)=O)C(=O)NC(CC(C)C)C1Cc2cccc(OCC(C)C)c2C(=O)O1 (stereo not shown) [IIIa-6-2]	33
CCOc1cccc2c1C(=O)OC(C(CC(C)C)NC(=O)C(OC(C)=O)C1OC(=O)CC1NC(=O)CC(C)C)C2 (stereo not shown) [IIIa-6-3]	33
CCCCCCCCCCCCCCCCCC(=O)NC1CC(=O)OC1C(OC(C)=O)C(=O)NC(CC(C)C)C1Cc2cccc(OCC)c2C(=O)O1 (stereo not shown) [IIIa-6-4]	22
CCCCCCCCC=CCCCCCCCC(=O)NC1CC(=O)OC1C(OC(C)=O)C(=O)NC(CC(C)C)C1Cc2cccc(OCC)c2C(=O)O1 (stereo not shown) [IIIa-6-5]	22
CCCCCCCCCCCCCCCCCCOc1cccc2c1C(=O)OC(C(CC(C)C)NC(=O)C(OC(C)=O)C1OC(=O)CC1NC(=O)C1CCCO1)C2 (stereo not shown) [IIIa-6-6]	33
CCOc1cccc2c1C(=O)OC(C(CC(C)C)NC(=O)C(OC(C)=O)C1OC(=O)CC1NC(=O)CC(C)OC)C2 (stereo not shown) [IIIa-6-7]	33

SMILES	inhibition in vivo at 50 mg/kg [%]
CCOc1cccc2c1C(=O)OC(C(CC(C)C)NC(=O)C(OC(C)=O)C1OC(=O)CC1NC(=O)c1ccc(C)cc1)C2 (stereo not shown) [IIIa-6-8]	22
CCOc1cccc2c1C(=O)OC(C(CC(C)C)NC(=O)C(OC(C)=O)C1OC(=O)CC1NC(=O)c1ccc(OCCC(C)C)cc1)C2 (stereo not shown) [IIIa-6-9]	22
CCC(=O)OC(C(=O)NC(CC(C)C)C1Cc2cccc(OCC3CCCCC3)c2C(=O)O1)C1OC(=O)CC1NC(C)=O (stereo not shown) [IIIa-6-10]	33
CCCC(=O)NC1CC(=O)OC1C(OC(=O)CCC)C(=O)NC(CC(C)C)C1Cc2cccc(OCc3ccco3)c2C(=O)O1 (stereo not shown) [IIIa-6-11]	33
CCC(=O)OC(C(=O)NC(CC(C)C)C1Cc2cccc(OC)c2C(=O)O1)C1OC(=O)CC1NC(C)=O (stereo not shown) [IIIa-6-12]	33
CCOc1cccc2c1C(=O)OC(C(CC(C)C)NC(=O)C(OC(=O)CC)C1OC(=O)CC1NC(=O)C(Cl)(Cl)Cl)C2 (stereo not shown) [IIIa-6-13]	33
CCOc1cccc2c1C(=O)OC(C(CC(C)C)NC(=O)C(OC)C1OC(=O)CC1NC(C)=O)C2 (stereo not shown) [IIIa-7-1]	33
CCOc1cccc2c1C(=O)OC(C(CC(C)C)NC(=O)C(OCC)C1OC(=O)CC1NC(C)=O)C2 (stereo not shown) [IIIa-7-2]	33
CCOc1cccc2c1C(=O)OC(C(CC(C)C)NC(=O)C(OCC)C1OC(=O)CC1NC(=O)CC(C)C)C2 (stereo not shown) [IIIa-7-3]	33
CCCCCCCCCCCCCCCCCC(=O)NC1CC(=O)OC1C(OCC)C(=O)NC(CC(C)C)C1Cc2cccc(OCCCCCCC)c2C(=O)O1 (stereo not shown) [IIIa-7-4]	22
CCCCCCCCC=CCCCCCCCC(=O)NC1CC(=O)OC1C(OCC)C(=O)NC(CC(C)C)C1Cc2cccc(OCC)c2C(=O)O1 (stereo not shown) [IIIa-7-5]	22
CCOc1cccc2c1C(=O)OC(C(CC(C)C)NC(=O)C(OC)C1OC(=O)CC1NC(=O)C1CCCO1)C2 (stereo not shown) [IIIa-7-6]	22
CCOc1cccc2c1C(=O)OC(C(CC(C)C)NC(=O)C(OC)C1OC(=O)CC1NC(=O)CC(C)OC)C2 (stereo not shown) [IIIa-7-7]	33
CCCCOC(C(=O)NC(CC(C)C)C1Cc2cccc(OCC)c2C(=O)O1)C1OC(=O)CC1NC(=O)c1ccc(C)cc1 (stereo not shown) [IIIa-7-8]	22
CCOc1cccc2c1C(=O)OC(C(CC(C)C)NC(=O)C(OC)C1OC(=O)CC1NC(=O)c1ccc(OCCC(C)C)cc1)C2 (stereo not shown) [IIIa-7-9]	22
